Data reported in the NIST ThermoML archive (doi:10.1016/j.jct.2016.03.026).

Assay: xn = mol fraction of the nth substance listed
Conditions: 273.15 K, Fluid (supercritical or subcritical phases), x1 = 0.97; for mass density: Vibrating tube method; for speed of sound: Frequency=5 MHz, Pulse-echo method

O=C=O [carbon dioxide] + CO
Conditions	mass density [kg/m3]	speed of sound [m/s]
5000 kPa	943.89	–
5025 kPa	944.05	–
5050 kPa	944.22	–
5075 kPa	944.38	–
5100 kPa	944.55	–
5125 kPa	944.71	–
5150 kPa	944.88	–
5175 kPa	945.05	–
5200 kPa	945.28	–
5225 kPa	945.45	–
5250 kPa	945.61	–
5275 kPa	945.83	–
5300 kPa	945.95	–
5325 kPa	946.18	–
5350 kPa	946.35	–
5375 kPa	946.51	–
5400 kPa	946.68	–
5425 kPa	946.88	–
5450 kPa	947.02	–
5475 kPa	947.19	–
5500 kPa	947.38	–
5525 kPa	947.55	–
5550 kPa	947.7	–
5575 kPa	947.84	–
5600 kPa	948	–
5625 kPa	948.22	–
5650 kPa	948.35	–
5675 kPa	948.48	–
5700 kPa	948.64	–
5725 kPa	948.81	–
5750 kPa	948.97	–
5775 kPa	949.13	–
5800 kPa	949.3	–
5825 kPa	949.41	–
5850 kPa	949.62	–
5875 kPa	949.74	–
5900 kPa	949.87	–
5925 kPa	950.03	–
5950 kPa	950.2	–
5975 kPa	950.35	–
6000 kPa	950.47	–
6020 kPa	–	581.6
6025 kPa	950.61	–
6040 kPa	–	581
6050 kPa	950.77	–
6075 kPa	950.93	–
6100 kPa	951.1	–
6125 kPa	951.26	–
6150 kPa	951.39	–
6175 kPa	951.59	–
6200 kPa	951.67	–
6225 kPa	951.86	–
6250 kPa	952.08	–
6275 kPa	952.24	–
6300 kPa	952.33	–
6325 kPa	952.49	–
6350 kPa	952.65	–
6375 kPa	952.82	–
6400 kPa	952.98	–
6425 kPa	953.14	–
6450 kPa	953.31	–
6475 kPa	953.47	–
6500 kPa	953.64	–
6525 kPa	953.73	–
6550 kPa	953.88	–
6575 kPa	954.04	–
6600 kPa	954.21	–
6625 kPa	954.37	–
6650 kPa	954.53	–
6675 kPa	954.7	–
6700 kPa	954.86	–
6725 kPa	955.03	–
6750 kPa	955.19	–
6775 kPa	955.35	–
6800 kPa	955.52	–
6825 kPa	955.67	–
6850 kPa	955.82	–
6875 kPa	955.96	–
6900 kPa	956.09	–
6925 kPa	956.25	–
6950 kPa	956.42	–
6975 kPa	956.58	–
7000 kPa	956.75	–
7025 kPa	956.91	–
7050 kPa	956.99	–
7075 kPa	957.15	–
7100 kPa	957.34	–
7125 kPa	957.48	–
7150 kPa	957.65	–
7175 kPa	957.81	–
7200 kPa	957.97	–
7225 kPa	958.14	–
7250 kPa	958.27	–
7275 kPa	958.38	–
7300 kPa	958.55	–
7325 kPa	958.71	–
7350 kPa	958.87	–
7375 kPa	959	–
7400 kPa	959.12	–
7425 kPa	959.28	–
7450 kPa	959.45	–
7475 kPa	959.61	–
7500 kPa	959.77	–
7525 kPa	959.94	–
7550 kPa	960.02	–
7575 kPa	960.18	–
7600 kPa	960.35	–
7625 kPa	960.51	–
7650 kPa	960.68	–
7675 kPa	960.84	–
7700 kPa	960.92	–
7725 kPa	961.08	–
7750 kPa	961.25	–
7775 kPa	961.41	–
7800 kPa	961.54	–
7825 kPa	961.66	–
7850 kPa	961.82	–
7875 kPa	961.98	–
7900 kPa	962.15	–
7925 kPa	962.23	–
7950 kPa	962.39	–
7975 kPa	962.56	–
